Literature values, collected in patent US7648957B2, “Nutritional and therapeutic composition of an insulin sensitizer and a peptide fraction” (DSM IP Assets B.V., priority 2002, dated 2010).

How the values were obtained:
[1] = very high glucose levels
[2] = test system: cell's response to insulin; settings: on administration of the chemical, estimated

methylhydroxy chalcone polymer [MHCP]
glucose levels in diabetic mice [1]: could normalise very high glucose levels | rise of sensitivity to insulin [2]: around 20 fold
